In ChEMBL document CHEMBL1201862, “PubChem BioAssay data set” (2004):
Calls of active or inactive are those of the source.

Tests used:
[1] = molecular target: T1, Corticotropin-releasing factor receptor 2/Corticotropin-releasing factor-binding protein (Homo sapiens, UniProt P24387+Q13324); assay: activators of CRF receptor 2 with binding protein – uHTS hits, confirmation (AID 602473); assay type: functional; settings: read-out: EC50_Mean
T1 sequence (Q13324 whole entry): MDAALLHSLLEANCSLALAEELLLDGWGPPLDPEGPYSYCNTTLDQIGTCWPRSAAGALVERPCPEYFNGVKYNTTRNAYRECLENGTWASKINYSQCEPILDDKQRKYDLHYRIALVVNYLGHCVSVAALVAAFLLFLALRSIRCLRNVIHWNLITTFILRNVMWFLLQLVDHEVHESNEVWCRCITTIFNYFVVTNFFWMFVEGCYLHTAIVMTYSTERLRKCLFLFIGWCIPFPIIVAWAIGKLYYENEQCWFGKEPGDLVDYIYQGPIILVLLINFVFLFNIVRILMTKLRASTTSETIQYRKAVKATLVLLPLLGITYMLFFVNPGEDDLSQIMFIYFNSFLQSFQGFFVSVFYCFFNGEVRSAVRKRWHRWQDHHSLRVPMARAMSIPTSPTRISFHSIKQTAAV
T1 sequence (P24387 whole entry): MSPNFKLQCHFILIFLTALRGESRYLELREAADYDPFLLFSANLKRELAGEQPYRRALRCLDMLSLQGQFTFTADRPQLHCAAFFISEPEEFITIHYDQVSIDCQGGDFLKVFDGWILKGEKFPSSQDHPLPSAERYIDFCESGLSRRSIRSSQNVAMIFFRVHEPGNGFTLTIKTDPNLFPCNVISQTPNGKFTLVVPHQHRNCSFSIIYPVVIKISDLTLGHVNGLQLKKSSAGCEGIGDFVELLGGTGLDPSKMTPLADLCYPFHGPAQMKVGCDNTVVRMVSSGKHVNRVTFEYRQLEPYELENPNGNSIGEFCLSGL

[2] = molecular target: T1, Corticotropin-releasing factor receptor 2/Corticotropin-releasing factor-binding protein; assay: Dose Response confirmation of uHTS hits for small molecule antagonists of the CRF-binding protein and CRF-R2 receptor complex.; assay type: functional; settings: read-out: IC50_Mean
[3] = molecular target: Voltage-dependent T-type calcium channel subunit alpha-1H (Homo sapiens, UniProt O95180); assay type: functional;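 also: channel activity triggered by adding a high calcium stimulation buffer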
[4] = molecular target: T2, Aminopeptidase N (Plasmodium falciparum FcB1/Columbia, UniProt O96935); assay: P. falciparum M1AAP inhibitors, biochemical, fluorogenic H-Leu-NHMec substrate, 1536-well (AID 1445); parameters: species or system Plasmodium falciparum 3D7, 3D7
T2 sequence (O96935 whole entry): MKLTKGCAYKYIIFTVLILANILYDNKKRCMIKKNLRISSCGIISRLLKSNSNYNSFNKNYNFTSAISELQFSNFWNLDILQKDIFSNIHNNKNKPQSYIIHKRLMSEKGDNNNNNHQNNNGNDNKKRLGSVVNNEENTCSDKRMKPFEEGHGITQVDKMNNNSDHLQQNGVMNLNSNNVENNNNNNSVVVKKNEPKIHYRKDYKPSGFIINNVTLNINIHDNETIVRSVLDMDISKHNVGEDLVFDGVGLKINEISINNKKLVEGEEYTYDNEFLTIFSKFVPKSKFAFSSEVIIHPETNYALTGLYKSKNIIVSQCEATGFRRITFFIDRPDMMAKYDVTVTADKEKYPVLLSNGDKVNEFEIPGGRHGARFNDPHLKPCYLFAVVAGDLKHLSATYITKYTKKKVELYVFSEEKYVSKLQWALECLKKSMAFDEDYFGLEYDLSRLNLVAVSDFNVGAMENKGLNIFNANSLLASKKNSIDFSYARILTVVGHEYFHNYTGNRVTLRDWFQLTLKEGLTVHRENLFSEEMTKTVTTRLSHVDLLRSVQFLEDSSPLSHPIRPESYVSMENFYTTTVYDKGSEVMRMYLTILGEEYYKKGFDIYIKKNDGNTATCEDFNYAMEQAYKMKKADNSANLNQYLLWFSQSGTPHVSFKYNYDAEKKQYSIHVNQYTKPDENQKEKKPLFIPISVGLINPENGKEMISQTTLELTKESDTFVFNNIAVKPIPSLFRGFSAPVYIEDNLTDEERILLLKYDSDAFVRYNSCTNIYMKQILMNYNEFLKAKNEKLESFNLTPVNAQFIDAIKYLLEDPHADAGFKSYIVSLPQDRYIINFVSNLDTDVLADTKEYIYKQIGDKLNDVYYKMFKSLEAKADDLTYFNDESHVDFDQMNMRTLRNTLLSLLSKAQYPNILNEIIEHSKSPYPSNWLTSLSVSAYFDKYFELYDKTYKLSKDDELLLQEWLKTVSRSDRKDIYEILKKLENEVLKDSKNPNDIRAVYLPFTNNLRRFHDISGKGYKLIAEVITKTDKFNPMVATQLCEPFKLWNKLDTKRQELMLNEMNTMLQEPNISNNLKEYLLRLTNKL

[5] = molecular target: T3, Small ubiquitin-related modifier 1 (Homo sapiens, UniProt P63165); assay: inhibitors of SUMO1 peptide binding, dose response, biochemical, fluorescence polarization, uHTS hits (AID 624382); assay type: functional; settings: read-out: IC50_Mean
[6] = molecular target: Peroxisome proliferator-activated receptor gamma/Nuclear receptor coactivator 2 (Homo sapiens, UniProt P37231); assay: TR-FRET dose response biochemical High Throughput Screening assay for agonists of the steroid receptor coactivator 2 (SRC-2) recruitment by the peroxisome proliferator-activated receptor gamma (PPAR gamma): non-selective agonists. [Related pubchem assays: 1297, 1032 ]; assay type: functional
[7] = molecular target: T3, Small ubiquitin-related modifier 1; assay: inhibitors of SUMO1 partner interactions, dose response, biochemical, FRET (AID 624383); assay type: functional; settings: read-out: IC50_Mean
[8] = molecular target: Peroxisome proliferator-activated receptor gamma/Nuclear receptor coactivator 3 (Homo sapiens, UniProt P37231); assay: TR-FRET dose response biochemical High Throughput Screening assay for agonists of the steroid receptor coactivator 3 (SRC-3) recruitment by the peroxisome proliferator-activated receptor gamma (PPAR gamma): non-selective agonists. [Related pubchem assays: 1301 (Confirmation screen.), 1048 (Primary screen.)]; assay type: functional
[9] = molecular target: Peroxisome proliferator-activated receptor gamma/Nuclear receptor coactivator 1 (Homo sapiens, UniProt P37231); assay: TR-FRET dose response biochemical High Throughput Screening assay for agonists of the steroid receptor coactivator 1 (SRC-1) recruitment by the peroxisome proliferator-activated receptor gamma (PPAR gamma): non-selective agonists. [Related pubchem assays (depositor defined):AID1300, AID1808, AID504735, AID631]; assay type: protein assay
[10] = molecular target: SUMO-activating enzyme (Homo sapiens, UniProt Q9UBT2); assay: SUMOylation inhibitor hit validation, confirmation, SUMOylation inhibitor project, biochemical, AlphaScreen (AID 2018); assay type: functional
[11] = molecular target: T4, Coagulation factor XII (Homo sapiens, UniProt P00748); assay type: functional;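 also: activated factor XIIa alpha cleaving a fluorogenic AMC peptide substrate; inhibitor potency from loss of enzyme activity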
T4 sequence (P00748 whole entry): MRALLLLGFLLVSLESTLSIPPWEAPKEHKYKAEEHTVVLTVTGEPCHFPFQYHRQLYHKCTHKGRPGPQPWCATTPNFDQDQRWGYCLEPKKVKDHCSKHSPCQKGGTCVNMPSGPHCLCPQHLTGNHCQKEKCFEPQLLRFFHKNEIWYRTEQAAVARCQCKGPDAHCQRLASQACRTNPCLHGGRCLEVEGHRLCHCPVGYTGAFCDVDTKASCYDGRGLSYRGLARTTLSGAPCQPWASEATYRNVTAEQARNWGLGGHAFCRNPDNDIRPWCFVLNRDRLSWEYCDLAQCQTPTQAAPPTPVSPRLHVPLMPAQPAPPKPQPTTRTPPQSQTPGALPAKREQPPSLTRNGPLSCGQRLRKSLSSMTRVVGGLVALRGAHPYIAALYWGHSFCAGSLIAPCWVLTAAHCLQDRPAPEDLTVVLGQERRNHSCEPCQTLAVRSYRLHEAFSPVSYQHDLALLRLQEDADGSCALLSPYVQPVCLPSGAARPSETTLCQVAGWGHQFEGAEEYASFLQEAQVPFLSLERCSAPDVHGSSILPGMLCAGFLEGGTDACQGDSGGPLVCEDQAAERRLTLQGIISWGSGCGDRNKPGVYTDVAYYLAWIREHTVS

[12] = molecular target: Cytochrome P450 2C19 (Homo sapiens, UniProt P33261); assay: Cytochrome panel assay with activity outcomes. Panel member name: p450-cyp2c19 Compounds with AC50 equal or less than 10 uM are considered active; assay type: functional; settings: read-out: AC50
[13] = molecular target: Glucose-6-phosphate 1-dehydrogenase (Homo sapiens, UniProt P11413); assay: human G6PD enzyme inhibitors, dose response, selectivity assay for P. falciparum G6PD inhibitor project, biochemical, fluorescence (AID 504792); assay type: functional
[14] = molecular target: T5, Protein Tat (Human immunodeficiency virus type 1 group M subtype B (isolate HXB2)(HIV-1), UniProt P04608); assay type: functional;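 also: tat binding to TAR RNA read out by fluorescence polarization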
T5 sequence (P04608 whole entry): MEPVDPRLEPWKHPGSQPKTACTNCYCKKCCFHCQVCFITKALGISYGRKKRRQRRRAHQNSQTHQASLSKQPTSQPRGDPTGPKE

[15] = inhibitors of Vif binding to APOBEC3G peptide, primary screen, biochemical, TR-FRET, GST-Vif 1-94, biotin-A3G peptide, dose response retest (AID 1117319); assay type: functional;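 also: TR-FRET signal of purified GST-Vif binding a biotinylated A3G peptide; inhibitors lower the FRET signal by blocking Vif and A3G binding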
[16] = cells; assay type: functional
[17] = inhibitors of intracellular T. cruzi replication, confirmation, NIH3T3 host cells, beta-gal luminescence (AID 2044); assay type: functional, cell-based;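 also: intracellular parasites grown in NIH/3T3 mouse fibroblasts as host cells; luminescent beta-galactosidase reporter signal from transgenic T. cruzi replicating inside host cells; inhibitors lower the luminescence signal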
[18] = THP-1 cell cytotoxicity, dose response, cytotoxicity control for non-replicating M. tuberculosis project (AID 489025); assay type: functional
[19] = cytotoxicity toward NIH3T3 fibroblasts, dose response, counter-screen, cell-based, ATP luminescence, mouse fibroblasts (AID 2010); assay type: functional;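 also: cells exposed to compound for about 90 hours before reading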
[20] = HepG2 cell cytotoxicity, dose response, cytotoxicity control for non-replicating M. tuberculosis project (AID 489018); assay type: functional; settings: Mycobacterium tuberculosis
[21] = molecular target: Genome polyprotein (dengue virus type 2, UniProt P29990); assay: Dengue-2 NS5 methyltransferase inhibitors, primary screen, biochemical, confirmation dose response (AID 588689); assay type: functional
[22] = A cytotoxicity screen of small molecule inhibitors of the PhoP region in Salmonella typhi identified in the primary screen. [Related pubchem assays: 1850, 1864, 1985 ]; assay type: functional
[23] = cytotoxicity in HPDE-C7 cells, cell-based, fluorescence, HTS (AID 430); assay type: functional; settings: Homo sapiens
[24] = molecular target: Cytochrome P450 2D6 (Homo sapiens, UniProt P10635);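 also: CYP2D6 member of a cytochrome P450 panel assay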
[25] = cytotoxicity in KRAS-transformed pancreatic duct cells, primary screen, cell-based, fluorescence, HTS (AID 431); assay type: functional; settings: Homo sapiens;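 also: cell line used: HPDE-C7K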
[26] = microbe, parasite or virus in culture; assay type: functional; settings: Mycobacterium tuberculosis

Chain of Voltage-dependent T-type calcium channel subunit alpha-1H (O95180 whole entry): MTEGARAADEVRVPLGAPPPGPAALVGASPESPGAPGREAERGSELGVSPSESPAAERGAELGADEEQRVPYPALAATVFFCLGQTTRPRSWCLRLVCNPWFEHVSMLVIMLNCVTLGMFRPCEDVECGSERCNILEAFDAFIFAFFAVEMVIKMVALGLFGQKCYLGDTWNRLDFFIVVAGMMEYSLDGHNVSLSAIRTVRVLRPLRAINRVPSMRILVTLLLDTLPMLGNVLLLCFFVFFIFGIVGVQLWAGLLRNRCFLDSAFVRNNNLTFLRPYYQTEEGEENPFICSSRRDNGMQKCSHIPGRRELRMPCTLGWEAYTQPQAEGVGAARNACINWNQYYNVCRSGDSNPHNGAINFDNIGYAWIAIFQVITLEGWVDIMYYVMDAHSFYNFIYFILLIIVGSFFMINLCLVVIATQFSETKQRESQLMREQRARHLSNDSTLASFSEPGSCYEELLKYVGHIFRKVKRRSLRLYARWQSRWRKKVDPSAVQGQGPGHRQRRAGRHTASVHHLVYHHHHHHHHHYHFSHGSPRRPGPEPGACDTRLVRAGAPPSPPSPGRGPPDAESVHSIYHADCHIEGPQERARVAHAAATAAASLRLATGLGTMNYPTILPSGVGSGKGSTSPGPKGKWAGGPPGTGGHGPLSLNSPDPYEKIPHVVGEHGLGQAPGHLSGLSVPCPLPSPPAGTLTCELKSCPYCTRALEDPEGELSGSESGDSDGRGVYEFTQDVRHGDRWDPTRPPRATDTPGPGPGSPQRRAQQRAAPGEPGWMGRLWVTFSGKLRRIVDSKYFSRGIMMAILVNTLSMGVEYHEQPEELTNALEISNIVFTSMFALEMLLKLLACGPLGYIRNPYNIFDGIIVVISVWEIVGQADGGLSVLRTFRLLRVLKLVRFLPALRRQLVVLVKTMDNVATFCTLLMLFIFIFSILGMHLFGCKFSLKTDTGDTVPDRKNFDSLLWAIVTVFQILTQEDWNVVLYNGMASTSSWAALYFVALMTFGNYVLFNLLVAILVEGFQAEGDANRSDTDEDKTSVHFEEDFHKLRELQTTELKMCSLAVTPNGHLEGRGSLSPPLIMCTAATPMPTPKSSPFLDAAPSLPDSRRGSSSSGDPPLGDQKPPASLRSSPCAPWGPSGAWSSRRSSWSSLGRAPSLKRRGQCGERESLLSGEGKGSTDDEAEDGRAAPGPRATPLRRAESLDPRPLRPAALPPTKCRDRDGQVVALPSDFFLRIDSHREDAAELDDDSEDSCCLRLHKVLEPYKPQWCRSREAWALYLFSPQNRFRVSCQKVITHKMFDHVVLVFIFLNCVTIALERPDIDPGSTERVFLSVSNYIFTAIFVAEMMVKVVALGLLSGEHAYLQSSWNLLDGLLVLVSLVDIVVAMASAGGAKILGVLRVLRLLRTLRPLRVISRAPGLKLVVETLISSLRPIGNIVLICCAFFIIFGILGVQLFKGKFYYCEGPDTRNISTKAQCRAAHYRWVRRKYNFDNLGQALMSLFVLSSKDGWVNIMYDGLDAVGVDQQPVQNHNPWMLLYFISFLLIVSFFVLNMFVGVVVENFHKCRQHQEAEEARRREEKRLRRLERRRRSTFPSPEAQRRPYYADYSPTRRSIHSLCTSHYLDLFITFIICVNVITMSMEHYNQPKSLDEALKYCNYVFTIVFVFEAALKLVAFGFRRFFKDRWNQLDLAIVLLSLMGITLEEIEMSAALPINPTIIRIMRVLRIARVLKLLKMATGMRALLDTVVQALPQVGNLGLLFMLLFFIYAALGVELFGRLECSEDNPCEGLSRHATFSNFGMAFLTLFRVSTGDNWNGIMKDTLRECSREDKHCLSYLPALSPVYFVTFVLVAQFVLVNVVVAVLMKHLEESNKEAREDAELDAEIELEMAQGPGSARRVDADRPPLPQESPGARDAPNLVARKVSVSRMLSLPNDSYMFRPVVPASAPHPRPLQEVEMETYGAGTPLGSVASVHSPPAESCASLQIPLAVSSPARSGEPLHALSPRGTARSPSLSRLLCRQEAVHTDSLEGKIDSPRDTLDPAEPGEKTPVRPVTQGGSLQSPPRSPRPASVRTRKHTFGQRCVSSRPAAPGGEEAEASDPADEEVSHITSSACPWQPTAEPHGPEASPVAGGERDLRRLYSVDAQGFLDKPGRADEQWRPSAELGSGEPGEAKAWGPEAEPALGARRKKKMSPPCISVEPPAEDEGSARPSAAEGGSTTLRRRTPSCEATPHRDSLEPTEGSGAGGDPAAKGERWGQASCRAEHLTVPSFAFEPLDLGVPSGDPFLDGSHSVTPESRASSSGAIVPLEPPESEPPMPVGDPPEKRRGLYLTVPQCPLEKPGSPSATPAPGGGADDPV
Chain of Peroxisome proliferator-activated receptor gamma/Nuclear receptor coactivator 2 (P37231 whole entry): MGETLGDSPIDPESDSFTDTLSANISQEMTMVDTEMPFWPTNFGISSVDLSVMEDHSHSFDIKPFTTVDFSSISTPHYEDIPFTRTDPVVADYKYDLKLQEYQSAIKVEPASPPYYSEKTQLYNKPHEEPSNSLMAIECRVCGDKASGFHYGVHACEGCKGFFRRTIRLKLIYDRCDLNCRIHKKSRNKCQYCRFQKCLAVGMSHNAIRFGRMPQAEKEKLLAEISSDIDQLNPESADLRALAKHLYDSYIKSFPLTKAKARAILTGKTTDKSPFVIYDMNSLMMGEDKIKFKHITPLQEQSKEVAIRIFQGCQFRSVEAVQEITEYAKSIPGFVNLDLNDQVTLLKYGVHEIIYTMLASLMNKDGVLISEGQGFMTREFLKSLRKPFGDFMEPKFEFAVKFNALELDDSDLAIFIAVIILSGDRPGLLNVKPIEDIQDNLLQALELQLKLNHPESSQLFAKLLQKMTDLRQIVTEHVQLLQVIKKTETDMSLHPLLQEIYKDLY
Chain of Peroxisome proliferator-activated receptor gamma/Nuclear receptor coactivator 2 (Q15596 whole entry, further chain): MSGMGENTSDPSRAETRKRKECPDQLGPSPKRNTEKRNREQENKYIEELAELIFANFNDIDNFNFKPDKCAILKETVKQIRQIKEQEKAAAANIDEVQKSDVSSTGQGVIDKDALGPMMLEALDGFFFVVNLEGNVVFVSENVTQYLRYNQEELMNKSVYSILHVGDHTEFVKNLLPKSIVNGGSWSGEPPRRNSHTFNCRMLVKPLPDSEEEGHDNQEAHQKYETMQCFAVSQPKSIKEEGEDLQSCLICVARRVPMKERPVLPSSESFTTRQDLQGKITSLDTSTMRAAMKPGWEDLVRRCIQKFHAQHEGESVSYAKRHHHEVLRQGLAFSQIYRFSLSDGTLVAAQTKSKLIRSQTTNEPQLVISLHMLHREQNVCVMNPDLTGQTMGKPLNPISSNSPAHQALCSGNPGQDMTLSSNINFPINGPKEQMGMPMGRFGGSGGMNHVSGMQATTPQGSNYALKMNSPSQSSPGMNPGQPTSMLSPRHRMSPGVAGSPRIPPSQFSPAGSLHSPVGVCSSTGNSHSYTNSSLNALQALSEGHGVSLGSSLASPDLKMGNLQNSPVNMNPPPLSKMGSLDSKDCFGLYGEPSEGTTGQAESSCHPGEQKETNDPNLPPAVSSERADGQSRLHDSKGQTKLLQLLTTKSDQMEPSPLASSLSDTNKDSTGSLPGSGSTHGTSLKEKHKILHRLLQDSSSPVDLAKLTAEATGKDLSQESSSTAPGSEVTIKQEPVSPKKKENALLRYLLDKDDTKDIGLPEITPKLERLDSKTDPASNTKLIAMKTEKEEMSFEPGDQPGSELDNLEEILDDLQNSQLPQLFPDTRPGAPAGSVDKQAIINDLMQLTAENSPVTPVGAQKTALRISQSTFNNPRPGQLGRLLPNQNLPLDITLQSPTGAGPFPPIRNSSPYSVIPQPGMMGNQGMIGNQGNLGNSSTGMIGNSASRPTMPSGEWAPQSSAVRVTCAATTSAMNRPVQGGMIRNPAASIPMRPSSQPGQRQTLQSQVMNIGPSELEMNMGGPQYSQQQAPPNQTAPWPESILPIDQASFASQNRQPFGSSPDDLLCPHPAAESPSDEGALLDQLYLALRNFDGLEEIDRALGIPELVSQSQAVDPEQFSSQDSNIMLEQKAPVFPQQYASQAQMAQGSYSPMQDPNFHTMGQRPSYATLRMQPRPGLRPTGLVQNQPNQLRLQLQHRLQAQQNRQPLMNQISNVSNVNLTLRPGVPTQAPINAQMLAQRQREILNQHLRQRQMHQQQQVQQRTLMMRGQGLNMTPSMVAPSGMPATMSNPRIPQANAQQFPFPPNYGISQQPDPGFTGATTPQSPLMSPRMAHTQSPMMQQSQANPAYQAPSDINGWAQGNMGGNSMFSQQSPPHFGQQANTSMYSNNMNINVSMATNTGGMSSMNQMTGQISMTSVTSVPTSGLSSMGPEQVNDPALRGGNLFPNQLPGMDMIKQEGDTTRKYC
T3 sequence (P63165 whole entry): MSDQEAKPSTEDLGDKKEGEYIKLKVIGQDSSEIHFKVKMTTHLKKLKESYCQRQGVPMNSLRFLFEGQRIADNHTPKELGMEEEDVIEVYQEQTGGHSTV
Chain of Glucose-6-phosphate 1-dehydrogenase (P11413 whole entry): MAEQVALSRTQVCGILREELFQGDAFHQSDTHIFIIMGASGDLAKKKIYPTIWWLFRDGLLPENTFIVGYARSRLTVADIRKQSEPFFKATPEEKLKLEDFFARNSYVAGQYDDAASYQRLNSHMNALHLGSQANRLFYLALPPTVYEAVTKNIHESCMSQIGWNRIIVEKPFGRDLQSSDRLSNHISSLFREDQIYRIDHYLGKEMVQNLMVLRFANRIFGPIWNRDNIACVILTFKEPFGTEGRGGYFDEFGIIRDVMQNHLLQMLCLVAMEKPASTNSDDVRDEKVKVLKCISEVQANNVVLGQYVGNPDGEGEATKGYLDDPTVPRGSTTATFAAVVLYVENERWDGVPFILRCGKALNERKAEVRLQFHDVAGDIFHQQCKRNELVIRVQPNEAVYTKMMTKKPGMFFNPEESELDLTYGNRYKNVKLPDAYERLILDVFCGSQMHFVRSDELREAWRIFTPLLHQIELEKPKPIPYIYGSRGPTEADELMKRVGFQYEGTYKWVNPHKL

## CC(C)(C)n1nnnc1C(c1ccc(Cl)cc1)N(Cc1cccnc1)Cc1ccco1 (stereo not drawn)
[1]
  EC50: > 53 µM (inactive)
[2]
  IC50: > 47.1 µM (inactive)
[3]
  EC50: 3.31 µM (active)

## CCNS(=O)(=O)c1ccc(CCC(=O)NCc2ccc(C)cc2)cc1
[4]
  IC50: 21.8 µM (active)

## COc1ccc(-c2nnc(Nc3ccc(S(=O)(=O)Nc4nccs4)cc3)c3ccccc23)cc1
[1]
  EC50: > 53 µM (inactive)
[2]
  IC50: > 47.1 µM (inactive)
[5]
  IC50: > 66.6 µM (inactive)
[6]
  EC50: 9.18 µM (active)
[7]
  IC50: 18.2 µM (active)
[8]
  EC50: > 79.4 µM (not active)
[9]
  EC50: 14.9 µM (inactive)

## O=C(Nc1ccccc1O)c1cc(S(=O)(=O)N2CCOCC2)c(Cl)cc1Cl
[10]
  IC50: > 100 µM (inactive)

## COc1cc(/C=N/NC(=O)c2cccnc2)ccc1OCC(=O)Nc1ccc(C)cc1
[4]
  IC50: 47.8 µM (active)

## Cc1cccc(NC(=O)c2cc(N3C(=O)CCC3=O)ccc2Cl)n1
[11]
  IC50: > 50 µM (inactive)
[12]
  AC50: 28.2 µM (inconclusive)

## O=C(CSc1ncnc2c1oc1ccccc12)Nc1cccc(Cl)c1
[6]
  EC50: 23.7 µM (not active)
[8]
  EC50: > 79.4 µM (not active)
[9]
  EC50: 37.1 µM (inactive)

## COc1c2ccoc2c(OCC=C(C)C)c2oc(=O)ccc12 [PHELLOPTERIN]
[13]
  IC50: > 80 µM (inactive)

## c1cncc(-c2csc(NCc3ccco3)n2)c1
[11]
  IC50: > 50 µM (inactive)
[14]
  IC50: > 100 µM (active)
[15]
  IC50: > 100 µM (active)

## COc1cc(OC)cc(C(=O)N2CCN(Cc3ccccc3C(F)(F)F)CC2)c1
[11]
  IC50: > 50 µM (inactive)

## CCn1c(=O)cc(SCC(=O)NCc2ccco2)c2ccccc21
[6]
  EC50: > 79.4 µM (not active)
[8]
  EC50: > 79.4 µM (not active)
[9]
  EC50: > 79.4 µM (inactive)

## COC(=O)c1sc(NC(=O)c2ccc([N+](=O)[O-])o2)c(C#N)c1C
[16]
  IC50: 6.19 µM (active)
[17]
  EC50: 0.255 µM (active)
[18]
  CC50: 18.8 µM (active)
[19]
  EC50: > 60 µM (not active)
[20]
  CC50: > 20 µM (active)

## O=C(O)Cn1cc(C=C2C(=O)NC(=O)NC2=O)c2ccccc21
[21]
  IC50: > 100 µM (active)

## Cc1cc(C)c([C@@H]2C[C@H]3CN(C4CCCC4)C(=O)[C@]34CCCN24)c(-n2cccn2)c1
[22]
  EC50: > 50 µM (active)

## Cc1nc2c(C(=O)NCc3ccc4c(c3)OCO4)cnn2c(O)c1Cc1ccccc1F
[23]
  EC50: 9.68 µM (active)
[24]
  AC50: 25.1 µM (inconclusive)
[3]
  EC50: 7.38 µM (active)
[25]
  EC50: 11.6 µM (active)

## NCCNC(=O)Cc1cccc(NC(=O)Cc2ccc(Nc3ncnc4c3ncn4[C@@H]3O[C@H](CO)[C@@H](O)[C@H]3O)cc2)c1
[4]
  IC50: 53.7 µM (active)

## Cc1cc2nc(C3CCN(CC4COc5ccccc5O4)CC3)[nH]c2cc1C (stereo not drawn)
[3]
  EC50: 4.9 µM (active)
[26]
  CC50: 30.9 µM (active)

## Cc1cccc(OCC(=O)Nc2nnc(-c3ccco3)s2)c1
[6]
  EC50: > 26.5 µM (not active)
[8]
  EC50: > 79.4 µM (not active)
[9]
  EC50: > 26.5 µM (inactive)
